Measured values taken from PMC8026324, “In Vitro Antiplasmodial, Heme Polymerization, and Cytotoxicity of Hydroxyxanthone Derivatives” (Journal of Tropical Medicine, 2021).
In brackets after ≈: the same amount, converted by molar mass.

Assays:
[1] = system: Hela; parameters: method as in earlier work; conditions: cited from earlier work
[2] = system: Plasmodium falciparum 3D-7; test: Flow cytometry method (SYBR green I / CD235A-PE); assay type: cell-based; conditions: 72 hours incubation
Procedure: The Plasmodium falciparum strains of 3D-7 were used in this method. The plasmodium synchronized to obtain the ring stage by adding 5% of D-sorbitol. Plasmodium with 1% parasitemia was cultured in a 96-well microplate. The testing compounds were added in duplicate and incubated at 37°C for 72 hours. The samples were centrifuged with a speed of 1000 rpm for 10 minutes and washed twice in 100 μL of phosphate-buffered saline (PBS). Samples were incubated with 50 μL of 1 : 1000 SYBR green I and 20μL of CD235A-PE for 15 minutes at room temperature. Cells were washed and resuspended in PBS. Data were obtained using a FACSCalibur with the acquisition of 1,00,000 events per sample. Initial gating was done with uninfected and unstained erythrocytes to account for erythrocyte autofluorescence. The control plasmodium-infected erythrocyte was referred as 100% growth to calculate the percentage of growth inhibition after treated with testing compound.

[3] = system: Plasmodium falciparum 3D-7 (chloroquine-sensitive strain); test: In vitro antiplasmodial activity assay, microscopic method, strain 3D-7; assay type: cell-based
Procedure, shortened: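 Sorbitol-synchronized ring-stage parasites at 1% parasitemia, 2% haematocrit in RPMI with 10% human O serum, exposed to compound dilutions in triplicate for 72 h at 37 °C. Parasitemia counted on Giemsa smears (≥1,000 erythrocytes); IC50 from growth inhibition by probit analysis.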

[4] = system: Vero cells; test: In vitro cytotoxicity test, MTT assay on Vero cell line; assay type: cell-based; conditions: for IC50: MTT assay
Procedure: The in vitro cytotoxicity test was conducted using the 3-(4,5-dimethylthiazol-2-yl)2,5-diphenyltetrazolium bromide (MTT) assay method on Vero cell line culture using the Anderson et al.'s modified method.
The cell was removed from the cryo medium. Then, the cell was thawed at 37°C. The liquid cell was subsequently transferred to the tube and a culture medium was added to a volume of 10 mL. Then, the suspension was centrifuged for 15 minutes so that it would form cell pellets. The supernatant was removed and 1 mL of culture medium was added to the cell pellets. Finally, the suspension was transferred to the Petri dish and incubated in the incubator with 5% of CO2 at 37°C.
The medium of Vero cell culture was removed, and then the cell was washed using a PBS solution with a volume of PBS ± 1/2 of the initial medium volume. This step was done twice and 1 mL of trypsin 0.25% was added. Subsequently, the cell was incubated in the CO2 incubator at 37°C for 3 minutes. Then, the cell was resuspended using 2 mL of culture medium and PBS solution was added up to 10 mL. The suspension was centrifuged for 15 minutes so that it formed pellets. Pellets were added with 1 mL of culture medium and resuspended. Take 10 μL of the cell suspension and density of cells was calculated.
Then, the cell was added with culture medium to 10 mL. A total of 100 μL of such suspensions was transferred into each well of the 96-well microplate, but three of the wells were emptied as medium controls. Subsequently, the microplate was incubated in a 5% CO2 incubator at 37°C.
Each hydroxyxanthone derivative compound was dissolved in DMSO, and a variety of concentrations were prepared in the medium. Each concentration of the testing compound was added into the 96-well microplate triplicately. Cell control and medium control were not given a testing compound solution. The medium control remained blank, while the cell control contained culture medium only. […] Then, the cell was incubated in a 5% CO2 incubator at 37°C for 24 hours.
After the cell was incubated for 24 hours, the medium was discarded and washed with PBS. Then, each well was added with 100 μL of 5 mg/mL of MTT solution. The 96-well microplate was incubated again in the incubator of CO2 at 37°C for 4 hours. Then, 100 μL of 10% of SDS in 0.01 MHCl was added. The cells were placed in a dark room at room temperature for 24 hours.
The absorbance was measured using the enzyme-linked immunosorbent assay (ELISA) reader at 595 nm wavelength. The cytotoxicity test on the Vero cells was done by calculating the percentage of Vero cell inhibition of the absorption value of the test compound, cell control, and medium control. The cytotoxic effect was expressed as IC50. The IC50 value was obtained from the probit analysis by using SPSS software (IBM Corp., Chicago). The degree of selectivity was expressed as a selectivity index. The selectivity index was obtained from the ratio between the IC50 cytotoxic effect on Vero cells and IC50 antiplasmodial activity on Plasmodium. A compound is said to be safe if the value of the selectivity index is >10 [20].

IC50 ([3]; Plasmodium falciparum, 72 hours incubation, microscopic method, read-out: IC50 on P. falciparum 3D-7): 0.0061 ± 0.00201 mM
Structure (SMILES): O=c1c2c(O)cccc2oc2cc(O)cc(O)c12 [HX1, 1,6,8-trihydroxyxanthone]
cytotoxicity on Hela (in words) [1]: weak | IC50 on Hela cell line ([1]; in vitro cytotoxicity): 67.7 µg/mL (≈ 277 µM) | inhibition activity of P. falciparum 3D-7 growth (flow cytometry) ([2]; 102.38 μM): showed inhibition activity | inhibition at 204.75 µM ([2]; Plasmodium falciparum, 204.75 μM, read-out: inhibition activity of P. falciparum 3D-7 growth (flow cytometry)): > 90% | inhibition at 6.39 µM ([3]; Plasmodium falciparum, 6.39 μM, read-out: Growth inhibition of P. falciparum Strain 3D-7): 47.4 ± 5.86% | inhibition at 12.8 µM ([3]; Plasmodium falciparum, 12.8 μM, read-out: Growth inhibition of P. falciparum Strain 3D-7): 61.5 ± 0.71% | inhibition at 25.59 µM ([3]; Plasmodium falciparum, 25.59 μM, read-out: Growth inhibition of P. falciparum Strain 3D-7): 64.7 ± 0.861% | inhibition at 51.19 µM ([3]; Plasmodium falciparum, 51.19 μM, read-out: Growth inhibition of P. falciparum Strain 3D-7): 69 ± 0.888% | inhibition at 102.38 µM ([3]; Plasmodium falciparum, 102.38 μM, read-out: Growth inhibition of P. falciparum Strain 3D-7): 75.86 ± 0.471% | antiplasmodial activity category on P. falciparum 3D-7 ([3]; category by IC50): good (good (IC50 1–20 μM)) | IC50 ([4]; 24 hours incubation): 3.39 ± 0.435 mM | IC50 ([4]; Chlorocebus sabaeus, Vero, 24 h, 24 hours incubation): 3.28 mM | inhibition at 255.94 µM ([4]; Chlorocebus sabaeus, Vero, 24 h, 255.94 μM, read-out: Vero cell growth inhibition after 24 hours incubation): -50.3 ± 17.2% | inhibition at 511.88 µM ([4]; Chlorocebus sabaeus, Vero, 24 h, 511.88 μM, read-out: Vero cell growth inhibition after 24 hours incubation): -4.13 ± 8.21% | inhibition at 1023.75 µM ([4]; Chlorocebus sabaeus, Vero, 24 h, 1023.75 μM, read-out: Vero cell growth inhibition after 24 hours incubation): 15.9 ± 8.24% | inhibition at 2047.5 µM ([4]; Chlorocebus sabaeus, Vero, 24 h, 2047.50 μM, read-out: Vero cell growth inhibition after 24 hours incubation): 28 ± 5.69% | inhibition at 4095 µM ([4]; Chlorocebus sabaeus, Vero, 24 h, 4095.00 μM, read-out: Vero cell growth inhibition after 24 hours incubation): 45.9 ± 5.51% | inhibition at 8190.01 µM ([4]; Chlorocebus sabaeus, Vero, 24 h, 8190.01 μM, read-out: Vero cell growth inhibition after 24 hours incubation): 89.4 ± 1.9% | IC50 ([4]; Chlorocebus sabaeus, Vero): 802 µg/mL | Selectivity index (over strains 3D-7 and FCR-3) ([4]; cytotoxicity/antiplasmodium ratio on P. falciparum 3D-7 and FCR-3): more than 10 | Selectivity index 3D-7 ([4]; ratio IC50 on Vero cell/IC50 on P. falciparum 3D-7): 556.54 | Selectivity index FCR-3 ([4]; ratio IC50 on Vero cell/IC50 on P. falciparum FCR-3): 502.20
